Assay results published in PMC10799292, “The Role of β-Defensin 1 Against Porphyromonas gingivalis Lipopolysaccharide-Mediated Inflammation in the THP-1 Cell Line” (Cureus, 2023).
No end group written: not given here.

Legend:
MPO = experiment: Myeloperoxidase (MPO) activity in lysate of Pg-LPS stimulated THP-1 cells; format: cell-based, human; details: for MPO Enzyme activity Average / MPO Enzyme activity 1 / MPO Enzyme activity 2: Pg-LPS 1 µg/mL, 24 h; for MPO Enzyme activity Average: mean of duplicates; for MPO Enzyme activity 1: replicate 1; for MPO Enzyme activity 2: replicate 2
Protocol: For inducing differentiation of THP-1 cells into macrophages, the cell line was premixed with 25 ng/mL PMA and incubated for 48 hours. After incubation, 5x10^4 cells were activated with Pg-LPS (LPS: 1 µg/mL) for one hour. Pg-LPS stimulated cells were exposed to different concentrations (6.25, 12.5, and 25 ng/mL) of β-defensin 1 and incubated for 24 hours. After incubation, the following anti-inflammatory assays were conducted utilizing the cell lysate.
Cell lysate was homogenized in hexadecyltrimethyl ammonium bromide (HTAB) and potassium phosphate buffer. The samples were centrifuged at 2000g for 30 minutes at 4°C and the activity of myeloperoxidase (MPO) enzyme was measured with the supernatant. MPO in the sample was stimulated by adding 50 mM phosphate buffer (pH 6) containing 1.67 mg/mL guaiacol and 0.0005% hydrogen peroxide. The absorbance change at […] was determined. The MPO activity (U) was shown as units per milliliter of cell lysate. At 25 °C, one unit of MPO activity corresponds to the degradation of 1µM peroxide per minute.
where ΔOD is the density change, Vt is the total volume (mL) (1.1 mL ), L is the light path (1 cm), and £470 is the extinction coefficient for tetraguaiacol (26.6 mM^-1·cm^-1).

THP-1 cells = experiment: Cell cycle distribution by flow cytometry; format: cell-based, human; details: co-treated with β-defensin 1, Pg-LPS stimulated
Protocol: Untreated control and Pg-LPS stimulated cells were also maintained. The MUSE Cell Cycle Kit was added, and the manufacturer's instructions were followed.

## β-defensin 1: β-Defensin 1 peptide was purchased from ThermoFisher Scientific, USA; cationic antimicrobial peptide (DHYNCVSSGGQCLYSACPIFTKIQGTCYRGKAKCCK; ends and bridges not checked; cysteine pairing not given here; UniProt P60022 33-68, looked up)
MPO; 6.25 ng/mL
  MPO Enzyme activity Average: 0.02795 U/mL
  MPO Enzyme activity 1: 0.0278 U/mL
  MPO Enzyme activity 2: 0.0281 U/mL
MPO; 12.5 ng/mL
  MPO Enzyme activity Average: 0.021 U/mL
  MPO Enzyme activity 1: 0.0209 U/mL
  MPO Enzyme activity 2: 0.0211 U/mL
MPO; 25 ng/mL
  MPO Enzyme activity Average: 0.01515 U/mL
  MPO Enzyme activity 1: 0.0152 U/mL
  MPO Enzyme activity 2: 0.0151 U/mL
MPO; 6.25, 12.5, and 25 ng/mL, Pg-LPS stimulated
  MPO enzyme activity (in words): decreased in a concentration-dependent manner
THP-1 cells
  arrest in the G0/G1 phase (in words): reduced
